SMILES strings stand for the structures.

The source of these data is publication PMC5464344, “Analgesic and anti‐inflammatory properties of novel, selective, and potent EP4 receptor antagonists” (Pharmacology Research & Perspectives, 2017).

Test [1] deals with male Lewis rats, MIA injected knee. Briefly: Rat MIA model of pain (incapacitance testing). The test is classed as in vivo. As to conditions: 1 h post dose, P < 0.05 by Dunnett's test. The protocol:
(§1) For the monoiodoacetate (MIA) and adjuvant induced arthritis (AIA) studies, male Lewis rats (Envigo, Indianapolis, IN) of approximately 8 weeks of age at the time of disease induction were used. For collagen induced arthritis studies (CIA) female Lewis rats (Charles River) weighing 150–170 g were used. Rats were housed in groups of 2 or 3 per cage and maintained in a constant temperature, and on a 12 h light/12 h dark cycle. Animals had free access to food and water at all times except during data collection.
The right knees of rats were injected with 0.3 mg of MIA (Sigma Aldrich) in 50 μL of saline and the left knees with 50 μL of saline on day zero. These intra‐articular injections are directly into the synovial cavity of the flexed knee joint through the patella ligament. Twelve days later, the rats were randomized into groups of five rats using body weight and the Block Randomized Allocation Tool. […] Reference compound CJ‐042,794 was also tested in the MIA model on day 14 post MIA injection at doses of 1, 3, 10, 30, and 50 mg/kg with the vehicle being 10% Solutol in PEG400 (n = 4 rats per group). The nonsteroidal anti‐inflammatory drug (NSAID) diclofenac was included in all studies at a dose of 5 mg/kg as a positive control. […] Pain was measured using incapacitance testing. […]

Test [2] has as its target T1, TP (TXA2/PGH2) (h); antagonist effect (Homo sapiens, UniProt P21731).
T1 construct: CEREP (contract laboratory that ran the assay)
T1 sequence (P21731 1-343): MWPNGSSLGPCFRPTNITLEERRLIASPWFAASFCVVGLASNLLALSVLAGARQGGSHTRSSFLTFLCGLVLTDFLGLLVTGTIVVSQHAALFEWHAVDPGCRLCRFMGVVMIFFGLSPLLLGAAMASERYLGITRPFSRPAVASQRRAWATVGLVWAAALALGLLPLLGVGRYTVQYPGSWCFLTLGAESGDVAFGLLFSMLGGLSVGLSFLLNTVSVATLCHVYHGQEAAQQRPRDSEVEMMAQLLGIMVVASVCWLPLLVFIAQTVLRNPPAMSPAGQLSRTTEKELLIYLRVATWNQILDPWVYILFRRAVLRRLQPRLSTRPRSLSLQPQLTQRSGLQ
Briefly: Off-target activity (CEREP), TP antagonist effect. Type of test: biochemical. As to conditions: 10 μmol/L; obtained at CEREP (Blanco et al. 2016c). The text has this: (§2) The off‐target activity related to prostaglandin pathway (Table 2) were obtained at CEREP (Blanco et al. 2016c).

In test [3] the target is T2, TP (TXA2/PGH2) (h); agonist effect (Homo sapiens, UniProt P21731).
T2 construct: CEREP (contract laboratory that ran the assay)
T2 sequence (P21731 1-343): T1 sequence (P21731 1-343)
Briefly: Off-target activity (CEREP), TP agonist effect. Type of test: biochemical. To be noted: 10 μmol/L; obtained at CEREP (Blanco et al. 2016c).
From the text: as §2

Test [4] has as its target T3, FP(h); agonist radioligand (Homo sapiens, UniProt P43088).
T3 construct: CEREP (contract laboratory that ran the assay)
The test is described as follows: Off-target activity (CEREP), FP. As to conditions: 10 μmol/L; obtained at CEREP (Blanco et al. 2016c). The test is classed as binding.
From the text: as §2

Test [5] concerns the target T4, DP1(h); agonist radioligand (Homo sapiens, UniProt Q13258).
T4 construct: CEREP (contract laboratory that ran the assay)
T4 sequence (Q13258 1-359): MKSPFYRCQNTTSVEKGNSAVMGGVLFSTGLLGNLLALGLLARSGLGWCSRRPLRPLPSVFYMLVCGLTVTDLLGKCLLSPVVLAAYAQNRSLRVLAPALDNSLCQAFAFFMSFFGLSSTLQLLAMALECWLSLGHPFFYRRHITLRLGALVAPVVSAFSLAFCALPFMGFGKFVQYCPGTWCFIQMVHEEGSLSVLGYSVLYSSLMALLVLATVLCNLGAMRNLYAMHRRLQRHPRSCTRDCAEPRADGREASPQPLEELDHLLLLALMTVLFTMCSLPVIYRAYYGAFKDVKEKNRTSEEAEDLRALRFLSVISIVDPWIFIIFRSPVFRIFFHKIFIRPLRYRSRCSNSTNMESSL
The test is described as follows: Off-target activity (CEREP), DP1. Type of test: binding. To be noted: 10 μmol/L; obtained at CEREP (Blanco et al. 2016c).
From the text: as §2

In test [6] the test system is male Lewis rats, adjuvant induced arthritis. On the set-up: method as in Blanco et al. 2016b. As to conditions: results published previously, ref Blanco et al. 2016b; cited from earlier work.
Test [7] concerns female Lewis rats, collagen induced arthritis. The test is described as follows: Type-II CIA model of inflammation and autoimmunity. The test is classed as in vivo. As to conditions: rat CIA. As to the method: as §1
On day 1 of the study ankle widths are measured across the joint (left side to right side) at the thickest point with calipers and rats immunized intradermally near the base of the tail with 0.4 mL of 1 mg/mL type II collagen (Elastin Products) emulsified with incomplete Freund's adjuvant (Sigma Aldrich). A second booster injection booster of 0.4 mL of the collagen emulsion was given on day 8 of the study. Ankle widths were measured on day 8 before the collagen injection and every 2–3 days thereafter until study end. On day 11 rats were randomized into five groups of eight animals based on inflammation (redness and/or swelling) in their hind paws and body weight. Rats were then dosed with vehicle (10% Acacia plus 0.05% antifoam) and compound 3 at doses of 3, 10, and 30 mg/kg. Prednisolone was included at a dose of 10 mg/kg as a positive control. Dosing was by oral gavage once daily for seventeen days at a dose volume of 5 mL/kg. On day 28 rats were euthanized and hind paws and knee joints collected for histology. Ankles and knees were fixed in neutral buffered formalin, decalcified, embedded in paraffin, and sectioned according to standard histological methodology and the joints were then scored by a pathologist using published scoring criteria (Bendele 2001; Levine et al. 2014).

T3 sequence (P43088 whole entry): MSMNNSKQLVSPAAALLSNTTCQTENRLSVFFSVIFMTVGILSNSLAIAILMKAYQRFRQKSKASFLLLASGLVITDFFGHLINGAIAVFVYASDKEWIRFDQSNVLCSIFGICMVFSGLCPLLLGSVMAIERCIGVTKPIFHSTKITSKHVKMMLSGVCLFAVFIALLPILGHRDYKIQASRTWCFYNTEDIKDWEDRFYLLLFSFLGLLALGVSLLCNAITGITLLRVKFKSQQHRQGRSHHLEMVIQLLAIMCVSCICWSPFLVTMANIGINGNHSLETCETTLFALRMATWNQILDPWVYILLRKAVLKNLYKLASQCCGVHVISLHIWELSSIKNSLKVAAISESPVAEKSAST

Take `C[C@H](NC(=O)c1cc(Cl)ccc1Oc1ccc(F)cc1)c1ccc(C(=O)O)cc1` [CJ‐042,794, reference compound]: the “pain efficacy (incapacitance testing) versus vehicle” value in test [1] (3, 10, 30, and 50 mg/kg oral) is “significantly different from vehicle”.
In the case of `Cc1ccc(N2CCC(O)CC2)nc1C(=O)Nc1c(C)cc(C(=O)O)cc1C` [Compound 1], in test [2], the “% Inh TP (TXA2/PGH2) (h); antagonist effect” value was −12.00%. Further, the “% Inh TP (TXA2/PGH2) (h); agonist effect” value in test [3] is −4.00%. For the same compound, the “% Inh FP(h); agonist radioligand” value in test [4] is reported as −2.00%. In addition, the “% Inh DP1(h); agonist radioligand” value in test [5] is 0.00%. Further, in test [6], the “efficacy in rat AIA model of inflammation” value is “effective”.
With `C[C@H](NC(=O)[C@H]1CCCCN1CCOc1ccccc1)c1ccc(C(=O)O)cc1` [Compound 2], in test [2], the “% Inh TP (TXA2/PGH2) (h); antagonist effect” value is listed as −12.00%. In addition, the “% Inh TP (TXA2/PGH2) (h); agonist effect” value in test [3] is recorded as −2.00%. Also, the “% Inh FP(h); agonist radioligand” value in test [4] is −9.00%. Besides, the “% Inh DP1(h); agonist radioligand” value in test [5] was −4.00%. Also, the “pain efficacy (normalization of hind paw weight distribution, incapacitance testing)” value in test [1] (1, 3, and 10 mg/kg oral) is given as “effective”.
On to `Cc1ccc(-c2cccc(CO)c2)nc1C(=O)Nc1c(C)ccc(C(=O)O)c1C` [Compound 3], for which the “ankle histology, nearly all parameters and summed scores” value in test [7] (10 and 30 mg/kg oral once daily for seventeen days) is “significant reductions”. Further, in test [7] (Fig. 10 bottom panel, prednisolone 10 mg/kg, compound 3 dose not given), the “knee joint histopathology (representative photomicrograph)” value was “minimal inflammation (S) and cartilage damage (large arrow), very minimal pannus (small arrow) and bone formation (P) not visible at this magnification”. Besides, in test [7] (Fig. 10 top panel, prednisolone 10 mg/kg, compound 3 dose not given), the “ankle joint histopathology (representative photomicrograph)” value is “moderate inflammation (S) and cartilage damage (large arrow), mild pannus (small arrow) and mild periosteal bone formation”. In test [7] (all three doses (3, 10, and 30 mg/kg) oral once daily, data not shown), the ankle thickness result was “significant reduction”.
